{"source": "patent US10159756B2", "about": "“Complex of mannosyl serum albumin, method of preparing the same, optical imaging probe and kit comprising the same” (Korea University Research and Business Foundation, priority 2014, dated 2018)", "key": {"lymph nodes": {"test_system": "lymph nodes", "experiment": "Biodistribution after injection into the mouse footpad", "type": "in vivo", "description": "Each of the ICG: MSA, prepared in Example 3, and ICG, was treated into U937 cells (Korean Cell Line Bank (KCLB) No. 21593.1) activated with PMA (phorbol 12-myristate 13-acetate, Sigma, USA) (FIG. 9a), and the distribution thereof in the cells was monitored. […] In addition, each of ICG:MSA and ICG was injected into the mouse footpad, and the biodistribution thereof was examined."}, "[1]": {"test_system": "metastatic sentinel lymph node", "experiment": "Detection of metastatic sentinel lymph node (ex vivo fluorescence, H & E staining, immunostaining)", "type": "in vivo, rabbit", "settings": "n = 4 for ICG group, n = 5 for ICG:MSA group", "description": "A VX2 rabbit tumor model (Radiology, 2005; 234:423-430) was established, and after 2 weeks, 60 μM of each of ICG and ICG:MSA was injected subcutaneously into the peritumor of the tumor model. Then, the efficiency with which each of ICG and ICG:MSA detects a sentinel lymph node was examined using a fluorescence imaging system (developed by the applicant). Dissected normal and metastatic lymph nodes were confirmed ex vivo by fluorescence, and whether cancer metastasized to the lymph nodes was examined by H & E tissue staining and immunostaining."}}, "data": [{"smiles": "CC1(C)C(/C=C/C=C/C=C/C=C2\\N(CCCCS(=O)(=O)O)c3ccc4ccccc4c3C2(C)C)=[N+](CCCCS(=O)(=O)[O-])c2ccc3ccccc3c21", "note": "[ICG, Indocyanine green]", "values": [{"measurement": "biodistribution", "setting": "lymph nodes", "value": "distributed in the popliteal lymph nodes and did spread to the axillary lymph nodes within a short time"}, {"measurement": "Metastatic SLN rate", "setting": "[1]", "value": 50, "unit": "%"}, {"measurement": "Total", "setting": "[1]", "value": 2}]}]}
